Laboratory results as given in US12558399B2, “Isocyclosporin A for topical treatment of ocular diseases” (DOMPE' FARMACEUTICI S.P.A., priority 2021, dated 2026).

How the values were obtained:
[1] = target: T1, TRPV3 (Homo sapiens, UniProt Q8NET8); experiment: FLIPR assay, TRPV3 inhibition; type: cell-based
T1 sequence (Q8NET8 1-790): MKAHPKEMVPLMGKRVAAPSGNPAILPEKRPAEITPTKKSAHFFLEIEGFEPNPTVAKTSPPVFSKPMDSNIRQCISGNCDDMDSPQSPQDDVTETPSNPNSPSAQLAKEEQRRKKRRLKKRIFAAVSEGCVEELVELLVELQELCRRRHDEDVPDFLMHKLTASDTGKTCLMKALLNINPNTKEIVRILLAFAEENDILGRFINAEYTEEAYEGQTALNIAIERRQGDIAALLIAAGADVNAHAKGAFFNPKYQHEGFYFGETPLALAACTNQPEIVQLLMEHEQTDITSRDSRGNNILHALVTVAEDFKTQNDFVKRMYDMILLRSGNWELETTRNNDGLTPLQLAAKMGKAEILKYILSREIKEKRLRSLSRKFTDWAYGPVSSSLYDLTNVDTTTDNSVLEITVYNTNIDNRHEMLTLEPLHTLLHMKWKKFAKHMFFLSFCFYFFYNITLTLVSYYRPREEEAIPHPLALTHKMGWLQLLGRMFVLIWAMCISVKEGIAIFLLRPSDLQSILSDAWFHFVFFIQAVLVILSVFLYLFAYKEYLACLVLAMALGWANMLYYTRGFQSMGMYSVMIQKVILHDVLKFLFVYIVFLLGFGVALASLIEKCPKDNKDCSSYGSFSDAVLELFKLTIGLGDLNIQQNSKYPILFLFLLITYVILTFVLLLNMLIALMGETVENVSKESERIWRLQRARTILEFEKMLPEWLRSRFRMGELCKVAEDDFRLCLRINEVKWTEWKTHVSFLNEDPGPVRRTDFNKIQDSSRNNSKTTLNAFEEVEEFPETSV
Source text: The FLIPR assay is used to screen ion channel targets using membrane permeable fluorescent dyes. In particular, ion channel targets with significant Ca permeability, produce an increase in intracellular calcium that can be measured using calcium-sensitive dyes (Michelle R. Arkin et al. FLIPR™ Assays for GPCR and Ion Channel Targets. Assay Guidance Manual [Internet]. Bethesda (MD): Eli Lilly & Company and the National Center for Advancing Translational Sciences; 2004).
(§1) TRPV3 is an ionic channel that plays an important role in itching and inflammation, which are two characterizing aspects of ocular surface diseases such as VKC and AKC.
(§2) In details, human TRP cells are trypsinized, counted and seeded in black, clear-bottomed 96 well plates at a density of 50,000 cells per well and incubated overnight. Next day, media is removed from cell plates and 25 μl assay buffer is added. Red membrane potential or Calcium 5 dye solution (10 μl) is added to the wells and incubated at 37° C. for 1 hour. TRPV3, TRPML2 and TRPC4 are tested using the membrane potential dye.
(§3) Dye solution is made up in assay buffer. Compound dilutions are performed in 100% DMSO or dH2O then transferred to intermediate dilutions (5% DMSO/assay buffer or 5% dH2O/assay buffer) for a short time (<10 minutes) just before adding to the cell plate.
The plates are placed in the FLIPR and fluorescence monitored every 1.52 seconds. After 20 seconds 10 μl of the appropriate standard agonist is added and the fluorescence monitored for 5 minutes at ex/em: 488 nm/510-570 nm.
Reference agonists and antagonists have been tested against each channel to check that the value is within the acceptable range in order to validate the assays.
Percentage activation and inhibition values of the test compound and reference compounds has been evaluated.

[2] = target: T2, TRPML2 (Homo sapiens, UniProt Q8IZK6); experiment: FLIPR assay, TRPML2 inhibition; type: cell-based
T2 sequence (Q8IZK6 1-566): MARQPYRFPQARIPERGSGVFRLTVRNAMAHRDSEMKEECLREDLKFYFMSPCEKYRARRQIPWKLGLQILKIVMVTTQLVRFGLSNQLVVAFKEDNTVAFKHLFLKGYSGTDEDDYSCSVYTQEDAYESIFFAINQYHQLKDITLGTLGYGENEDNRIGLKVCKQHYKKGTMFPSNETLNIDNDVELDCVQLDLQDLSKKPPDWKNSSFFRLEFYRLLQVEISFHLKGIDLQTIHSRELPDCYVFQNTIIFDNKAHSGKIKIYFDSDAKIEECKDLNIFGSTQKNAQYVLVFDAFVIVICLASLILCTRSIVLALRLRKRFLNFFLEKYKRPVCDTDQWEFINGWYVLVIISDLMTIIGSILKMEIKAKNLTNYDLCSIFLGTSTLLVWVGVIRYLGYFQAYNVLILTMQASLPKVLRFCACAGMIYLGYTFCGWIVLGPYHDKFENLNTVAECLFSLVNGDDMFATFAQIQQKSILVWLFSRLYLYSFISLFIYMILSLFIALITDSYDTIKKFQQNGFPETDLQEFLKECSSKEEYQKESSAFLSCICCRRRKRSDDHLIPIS
Experimental: The FLIPR assay is used to screen ion channel targets using membrane permeable fluorescent dyes. […]
as §2, §3

[3] = mouse, in vivo
[4] = tested on: tear secretion; experiment: Tear secretion by modified Schirmer test in scopolamine-treated mice; type: in vivo; conditions: mouse, day 22 and day 25, compared between treated groups
Experimental: In details, 15 mice (N=5 per group) were randomly assigned at baseline to 3 groups and dry eye was induced by treatment with a subcutaneous injection protocol of 0.5 mg/0.2 ml scopolamine hydrobromide, as previously described (Yeh S et al. Invest Ophthalmol Vis Sci, 2003, 44 (1): 124-9). […] In the treatment groups, ten microliters of the test formulations were instilled in each mouse three times a day in both eyes starting at Day 1 after the first scopolamine injection for 25 days. The treatments were encoded, and the group allocation was blinded to the technician administering the treatment, and to the researcher assessing the outcome of the experiment. Group identification was uncovered at the end of the analysis. Tear secretion was also measured in all animals by modified Schirmer test at day 22 and at day 25, as described in Rossi S. et al. Arch Ital Biol. 2012 March; 150 (1): 15-21.

[5] = tested on: eye of healthy rabbits; conditions: rabbit, in vivo
[6] = target: T3, TRPC4 (Homo sapiens, UniProt Q9UBN4); experiment: FLIPR assay, TRPC4 activation; type: cell-based; conditions: 30 μM
T3 sequence (Q9UBN4 1-977): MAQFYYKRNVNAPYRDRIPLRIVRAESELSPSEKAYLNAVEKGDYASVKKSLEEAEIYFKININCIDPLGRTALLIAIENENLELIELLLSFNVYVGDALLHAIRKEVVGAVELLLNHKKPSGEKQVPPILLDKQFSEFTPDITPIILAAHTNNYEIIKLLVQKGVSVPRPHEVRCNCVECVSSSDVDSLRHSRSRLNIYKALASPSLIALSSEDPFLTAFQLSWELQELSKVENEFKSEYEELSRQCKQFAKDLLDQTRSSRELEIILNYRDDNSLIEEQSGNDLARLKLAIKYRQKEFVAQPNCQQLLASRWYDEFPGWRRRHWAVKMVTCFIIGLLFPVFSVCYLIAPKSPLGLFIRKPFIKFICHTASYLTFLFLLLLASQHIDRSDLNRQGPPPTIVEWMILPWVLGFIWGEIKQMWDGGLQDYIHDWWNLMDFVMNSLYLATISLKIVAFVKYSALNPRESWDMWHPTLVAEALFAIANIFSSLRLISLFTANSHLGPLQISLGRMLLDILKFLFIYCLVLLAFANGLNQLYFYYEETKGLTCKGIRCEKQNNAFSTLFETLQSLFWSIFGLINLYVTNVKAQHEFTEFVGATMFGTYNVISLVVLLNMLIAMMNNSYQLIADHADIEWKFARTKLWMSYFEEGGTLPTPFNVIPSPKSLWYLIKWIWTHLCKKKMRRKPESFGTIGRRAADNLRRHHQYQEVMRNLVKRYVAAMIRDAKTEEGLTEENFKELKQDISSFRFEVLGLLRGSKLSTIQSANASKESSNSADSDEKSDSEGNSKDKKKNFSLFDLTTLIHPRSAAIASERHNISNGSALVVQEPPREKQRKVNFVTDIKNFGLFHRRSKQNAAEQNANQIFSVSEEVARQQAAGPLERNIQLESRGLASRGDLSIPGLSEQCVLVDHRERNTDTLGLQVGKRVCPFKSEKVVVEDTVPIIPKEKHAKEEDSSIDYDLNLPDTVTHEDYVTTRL
Experimental: The FLIPR assay is used to screen ion channel targets using membrane permeable fluorescent dyes.
as §1, §2, §3
After 20 seconds IsoCsA, CsA or standard agonist are added to the wells and the fluorescence monitored for 5 minutes at ex./em.

[7] = 56 μM, reference agonist, considered equal to 0%
[8] = 2 μM, agonist, considered equal to 0%

NCCOB(c1ccccc1)c1ccccc1 [2-APB, 2-aminoetoxy diphenyl borate]
TRPV3 Inhibition % Mean [1, 7]: 0%
TRPV3 Inhibition % n = 1 [1, 7]: 0%
TRPV3 Inhibition % n = 2 [1, 7]: 0%

[Ca+2].[Cl-].[Cl-] [CaCl2]
TRPML2 Inhibition % Mean [2, 8]: 0%
TRPML2 Inhibition % n = 1 [2, 8]: 0%
TRPML2 Inhibition % n = 2 [2, 8]: 0%

[Gd+3] [Gd3, Gadolinium]
TRPML2 Inhibition % Mean ([2]; 4 mM, antagonist): 89.6%
TRPML2 Inhibition % n = 1 ([2]; 4 mM, antagonist): 88.2%
TRPML2 Inhibition % n = 2 ([2]; 4 mM, antagonist): 90.9%

N.N.N.N.N.N.N.N.N.N.N.N.N.N.[Cl-].[Cl-].[Cl-].[Cl-].[Cl-].[Cl-].[O-2].[O-2].[Ru+3].[Ru+3].[Ru+4] [RR, ruthenium red]
TRPV3 Inhibition % Mean ([1]; 100 μM, reference antagonist): 91.7%
TRPV3 Inhibition % n = 1 ([1]; 100 μM, reference antagonist): 90.2%
TRPV3 Inhibition % n = 2 ([1]; 100 μM, reference antagonist): 93.2%

isocyclosporin A
mean level in Conjunctiva [3]: 20 ± 7 ng/mg
mean level in Cornea [3]: 15 ± 5 ng/mg
mean level in Intraocular tissues (combined) [3]: 2 ± 1 ng/mg
variability of tissue levels within different animals with the same treatment [3]: significantly lower variability
TRPML2 Inhibition % Mean ([2]; 30 μM): 71.2%
TRPML2 Inhibition % n = 1 ([2]; 30 μM): 63.9%
TRPML2 Inhibition % n = 2 ([2]; 30 μM): 78.5%
ability to antagonize TRPML2 in comparison with cyclosporin A ([2]; 30 μM): more than double
tear secretion [4]: significantly higher levels
frequency of the winking [5]: 5±1
effect on activation of TRPC4 [6]: does not have any effect on activation of this channel
TRPV3 Inhibition % Mean ([1]; 30 μM): 60.1%
TRPV3 Inhibition % n = 1 ([1]; 30 μM): 63.7%
TRPV3 Inhibition % n = 2 ([1]; 30 μM): 56.5%
ability to antagonize TRPV3 relative to cyclosporin A ([1]; 30 μM): more than 4 fold
